Drawing on patent US10604489B2, “Compounds for the treatment of pain” (priority 2018, dated 2020), this text covers Ki and EC50 for 29 compounds.

Where a name gives a salt, the structure may show the parent alone. Bounds are passed on as bounds.

Experiment [1] concerns the target μ-receptor (Homo sapiens (Human), UniProt P35372). The experiment is described as follows: Receptor binding, competitive displacement of [3H]DAMGO. The settings on record: 0.25 nM [3H]DAMGO, CHO cell membrane protein, 60 min at 25° C. The method, boiled down: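 Membranes from CHO cells stably expressing cloned human μ-opioid receptor incubated 60 min at 25 °C with 12 compound concentrations and 0.25 nM [3H]DAMGO in 50 mM Tris-HCl pH 7.5; nonspecific binding with 10 μM naloxone. Filtration and scintillation counting; Ki from IC50 by Cheng-Prusoff.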
In general terms: In a radioligand displacement assay an active substance lowers the binding of a labelled ligand.

Experiment [2] concerns the target human μ opioid receptor (Homo sapiens (Human), UniProt P35372). The experiment is described as follows: Functional activity ([35S]GTPγS binding). The experiment is classed as biochemical. Particulars: [35S]GTPγS 0.080 nM, CHO cell membranes, 60 min at 30° C., filtration. The method in brief:
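Membranes from stably transfected CHO cells (7.5 μg) incubated with 12 test-compound concentrations and 0.080 nM [35S]GTPγS in 50 mM Tris-HCl pH 7.4, 3 mM MgCl2, 0.2 mM EGTA, 3 μM GDP, 100 mM NaCl, 60 min at 30° C. Nonspecific binding defined with 10 μM GTPγS; bound label collected by filtration and scintillation counting.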

As a reminder, the Ki is a measure of affinity in units of concentration, obtained from inhibition or displacement. Lower therefore signals tighter binding. For orientation: EC50 means the concentration at which the effect is half-maximal. Read a low EC50 as greater potency.

On to `COC1(c2ccc(C(N)=O)s2)C2CCCC1CN(CCN1CCOC1=O)C2` [Compound 98, 5-((1R,5S,9r)-9-methoxy-3-(2-(2-oxooxazolidin-3-yl)ethyl)-3-azabicyclo[3.3.1]nonan-9-yl)thiophene-2-carboxamide (S)-2-hydroxysuccinate], for which, in experiment [1], the Ki was > 5 nM. Further, the EC50 in experiment [2] lay within 10 to 75 nM.

The compound `CCCC(C)N1CC2CCCC(C1)C2(OC)c1ccnc(C(N)=O)c1` [Compound 118, 4-((1R,5S,9r)-9-methoxy-3-(pentan-2-yl)-3-azabicyclo[3.3.1]nonan-9-yl)picolinamide hydrochloride] returned a Ki in experiment [1] of 1 to 5 nM. The compound also had an EC50 in experiment [2] of 10 to 75 nM.

With `COC1(c2cccc(C(N)=O)c2)C2CCCC1CN(CCc1ccccc1)C2` [Compound 24, 3-((1R,5S,9r)-9-methoxy-3-phenethyl-3-azabicyclo[3.3.1]nonan-9-yl)benzamide hydrochloride], the Ki in experiment [1] is < 1 nM. Also, the EC50 in experiment [2] was < 10 nM.

`COC1(c2ccnc(C(N)=O)c2)C2CCCC1CN([C@H]1CCCOC1)C2` (stereo partly drawn) [Compound 132, 4-((1R,5S,9s)-9-methoxy-3-((S)-tetrahydro-2H-pyran-3-yl)-3-azabicyclo[3.3.1]nonan-9-yl)picolinamide hydrochloride] displayed an inhibition constant (Ki) in experiment [1] of 1 to 5 nM. For the same compound, the concentration for a half-maximal effect (EC50) in experiment [2] was > 75 nM.

Consider `COC1(c2cccc(C(N)=O)c2)C2CCCC1CN(C[C@@H]1CCOC1)C2.Cl` (single isomer, unassigned) [Compound 143, hydrochloride], for which, in experiment [1], the Ki was < 1 nM. Further, the EC50 in experiment [2] was < 10 nM.

With `COC1(c2cccc(C(N)=O)c2)C2CCCC1CN(Cc1ccccc1)C2` [Compound 21, 3-((1R,5S,9r)-3-benzyl-9-methoxy-3-azabicyclo[3.3.1]nonan-9-yl)benzamide hydrochloride], the Ki in experiment [1] is < 1 nM. Also, the EC50 in experiment [2] was < 10 nM.

`COC1(c2ccc(C(N)=O)s2)C2CCCC1CN(CCN1CCCS1(=O)=O)C2` [Compound 97, 5-((1R,5S,9r)-3-(2-(1,1-dioxidoisothiazolidin-2-yl)ethyl)-9-methoxy-3-azabicyclo[3.3.1]nonan-9-yl)thiophene-2-carboxamide (S)-2-hydroxysuccinate]: in experiment [1], the Ki was < 1 nM. The compound also had an EC50 in experiment [2] of 10 to 75 nM.

For the compound `COC1(c2ccnc(C(N)=O)c2)C2CCCC1CN(C1CC(c3ccccc3)C1)C2` [Compound 87, 4-((1R,5S,9R)-9-methoxy-3-((1r,3R)-3-phenylcyclobutyl)-3-azabicyclo[3.3.1]nonan-9-yl)picolinamide hydrochloride], in experiment [1], the Ki is < 1 nM. The EC50 in experiment [2] was < 10 nM.

In the case of `COC1(c2cccc(C(N)=O)c2)C2CCCC1CN(CC1CCC1)C2` [Compound 26, 3-((1R,5S,9r)-3-(cyclobutylmethyl)-9-methoxy-3-azabicyclo[3.3.1]nonan-9-yl)benzamide hydrochloride], in experiment [1], the Ki is < 1 nM. Also, the EC50 in experiment [2] is < 10 nM.

With `COC1(c2ccnc(C(N)=O)c2)C2CCCC1CN(C1CC3(CCC3)C1)C2` [Compound 77, 4-((1R,5S,9r)-9-methoxy-3-(spiro[3.3]heptan-2-yl)-3-azabicyclo[3.3.1]nonan-9-yl)picolinamide hydrochloride], the Ki in experiment [1] is < 1 nM. For the same compound, in experiment [2], the EC50 is < 10 nM.

The compound `COCCN1CC2CCCC(C1)C2(OC)c1ccnc(C(N)=O)c1` [Compound 83, 4-((1R,5S,9r)-9-methoxy-3-(2-methoxyethyl)-3-azabicyclo[3.3.1]nonan-9-yl)picolinamide hydrochloride] yielded a Ki in experiment [1] of 1 to 5 nM. Besides, the EC50 in experiment [2] lay within 10 to 75 nM.

Consider `COC1(c2ccc(C(N)=O)s2)C2CCCC1CN(CC1CC1)C2` [Compound 36, 5-((1R,5S,9r)-3-(cyclopropylmethyl)-9-methoxy-3-azabicyclo[3.3.1]nonan-9-yl)thiophene-2-carboxamide hydrochloride], for which the Ki in experiment [1] was < 1 nM. The same compound showed an EC50 in experiment [2] of 10 to 75 nM.

As for `COC1(c2cccc(C(N)=O)c2)C2CCCC1CN(Cc1n[nH]c3ccccc13)C2` [Compound 154, 3-((1R,5S,9r)-3-((1H-indazol-3-yl)methyl)-9-methoxy-3-azabicyclo[3.3.1]nonan-9-yl)benzamide hydrochloride], in experiment [1], the Ki was < 1 nM. For the same compound, in experiment [2], the EC50 was < 10 nM.

For the compound `COC1(c2ccnc(C(N)=O)c2F)C2CCCC1CN(C)C2` [Compound 53, 3-fluoro-4-((1R,5S,9r)-9-methoxy-3-methyl-3-azabicyclo[3.3.1]nonan-9-yl)picolinamide hydrochloride], the inhibition constant Ki in experiment [1] lay in the range of 1 to 5 nM. The concentration giving a half-maximal response (EC50) in experiment [2] is > 75 nM.

As to `COC1(c2cccc(C(N)=O)c2)C2CCCC1CN([C@H]1C[C@H]3C[C@H]3C1)C2` (stereo partly drawn) [Compound 11, 3-((1R,5S,9r)-3-(bicyclo[3.1.0]hexan-3-yl)-9-methoxy-3-azabicyclo[3.3.1]nonan-9-yl)benzamide hydrochloride], the inhibitory constant (Ki) in experiment [1] is < 1 nM. Moreover, the concentration giving a half-maximal response (EC50) in experiment [2] is < 10 nM.

Regarding `COC1(c2ccnc(C(N)=O)c2)C2CCCC1CN(Cc1n[nH]c3ccccc13)C2` [Compound 142, 4-((1R,5S,9r)-3-((1H-indazol-3-yl)methyl)-9-methoxy-3-azabicyclo[3.3.1]nonan-9-yl)picolinamide hydrochloride], in experiment [1], the Ki was < 1 nM. In experiment [2], the EC50 is < 10 nM.

Turning to `COC1(c2ccnc(C(N)=O)c2)C2CCCC1CN(C[C@H]1CCCO1)C2.Cl` (single isomer, unassigned) [Compound 136, hydrochloride], in experiment [1], the Ki was > 5 nM. This compound also came in with a 50% effective concentration (EC50) in experiment [2] of 10 to 75 nM.

In experiment [1], `COC[C@H](C)N1CC2CCCC(C1)C2(OC)c1ccnc(C(N)=O)c1.Cl` (single isomer, unassigned) [Compound 61, hydrochloride] registered an inhibitory constant (Ki) of 1 to 5 nM. Further, in experiment [2], the EC50 fell in the range of 10 to 75 nM.

In turn, `COC1(c2ccc(C(N)=O)s2)C2CCCC1CN(C1CCCCC1)C2` [Compound 101, 5-((1R,5S,9r)-3-cyclohexyl-9-methoxy-3-azabicyclo[3.3.1]nonan-9-yl)thiophene-2-carboxamide hydrochloride] returned an inhibition constant (Ki) in experiment [1] of 1 to 5 nM. Further, the EC50 in experiment [2] is > 75 nM.

On to `COC1(c2ccnc(C(N)=O)c2)C2CCCC1CN([C@H]1C[C@@H](C)C1)C2` (stereo partly drawn) [Compound 130, 4-((1R,5S,9R)-9-methoxy-3-((1s,3S)-3-methylcyclobutyl)-3-azabicyclo[3.3.1]nonan-9-yl)picolinamide hydrochloride], for which, in experiment [1], the Ki is < 1 nM. For the same compound, in experiment [2], the EC50 was 10 to 75 nM.

Take `COC1(c2cccc(C(N)=O)c2)C2CCCC1CN(Cc1nc3ccccc3[nH]1)C2` [Compound 64, 3-((1R,5S,9r)-3-((1H-benzo[d]imidazol-2-yl)methyl)-9-methoxy-3-azabicyclo[3.3.1]nonan-9-yl)benzamide hydrochloride]: in experiment [1], the Ki was < 1 nM. In addition, in experiment [2], the EC50 was < 10 nM.

As to `COC1(c2ccnc(C(N)=O)c2)C2CCCC1CN(Cc1cncn1C)C2` [Compound 121, 4-((1R,5S,9r)-9-methoxy-3-((1-methyl-1H-imidazol-5-yl)methyl)-3-azabicyclo[3.3.1]nonan-9-yl)picolinamide hydrochloride], the Ki in experiment [1] is 1 to 5 nM. Besides, the EC50 in experiment [2] was > 75 nM.

As for `COC1(c2ccnc(C(N)=O)c2)C2CCCC1CN([C@H]1CC[C@@H]1C)C2` (stereo in doubt) [Compound 147, 4-((1R,5S,9R)-9-methoxy-3-((1R,2R)-2-methylcyclobutyl)-3-azabicyclo[3.3.1]nonan-9-yl)picolinamide hydrochloride], the Ki in experiment [1] is 1 to 5 nM. This compound also had an EC50 in experiment [2] of 10 to 75 nM.

Turning to `COC1(c2ccnc(C(N)=O)c2)C2CCCC1CN(CC1(O)CC1)C2` [Compound 72, 4-((1R,5S,9r)-3-((1-hydroxycyclopropyl)methyl)-9-methoxy-3-azabicyclo[3.3.1]nonan-9-yl)picolinamide hydrochloride], the Ki in experiment [1] was in the range of 1 to 5 nM. Also, the EC50 in experiment [2] was > 75 nM.

For the compound `COC1(c2cccc(C(N)=O)c2)C2CCCC1CN(C1CC1)C2` [Compound 38, 3-((1R,5S,9r)-3-cyclopropyl-9-methoxy-3-azabicyclo[3.3.1]nonan-9-yl)benzamide hydrochloride], in experiment [1], the Ki is < 1 nM. The same compound came in with an EC50 in experiment [2] of 10 to 75 nM.

With `COC1(c2ccnc(C(N)=O)c2)C2CCCC1CN([C@H]1C[C@@H]3[C@H](C1)C3(F)F)C2` (stereo partly drawn) [Compound 18, 4-((1R,5S,9R)-3-((1R,3r,5S)-6,6-difluorobicyclo[3.1.0]hexan-3-yl)-9-methoxy-3-azabicyclo[3.3.1]nonan-9-yl)picolinamide hydrochloride], the Ki in experiment [1] is < 1 nM. The EC50 in experiment [2] was < 10 nM.

`COC1(c2ccnc(C(N)=O)c2)C2CCCC1CN([C@H]1C[C@@H](OC)C1)C2` (stereo partly drawn) [Compound 139, 4-((1R,5S,9R)-9-methoxy-3-((1r,3R)-3-methoxycyclobutyl)-3-azabicyclo[3.3.1]nonan-9-yl)picolinamide hydrochloride]: in experiment [1], the Ki was < 1 nM. The same compound came in with an EC50 in experiment [2] of 10 to 75 nM.

The compound `COC1(c2cccc(C(N)=O)c2)C2CCCC1CN(CC1CCS(=O)(=O)CC1)C2` [Compound 1, 3-((1R,5S,9r)-3-((1,1-dioxidotetrahydro-2H-thiopyran-4-yl)methyl)-9-methoxy-3-azabicyclo[3.3.1]nonan-9-yl)benzamide hydrochloride] registered a Ki in experiment [1] of 1 to 5 nM. In experiment [2], the EC50 is > 75 nM.

Regarding `COC1(c2ccnc(C(N)=O)c2)C2CCCC1CN([C@H]1CC[C@@H]1C)C2` (single isomer, unassigned) [Compound 144, hydrochloride], in experiment [1], the Ki was < 1 nM. The same compound gave an EC50 in experiment [2] of 10 to 75 nM.
